Test results: paper PMC12299904, “Purine–Hydrazone Scaffolds as Potential Dual EGFR/HER2 Inhibitors” (Pharmaceuticals, 2025)
Where “and” joins values, the source holds several entries; their conditions need not be identical. Equal entries are not always repeated. Where two headings read alike, the source gives them in different places.

How the values were obtained:
A549 cells = assay: In vitro cytotoxicity assay (MTT), A549; details: for IC50: mean ± SD, three experiments
Procedure: (§1) The selected cell lines include A549, a lung cancer cell line that is characterized by its high expression of EGFR; SKOV-3, an ovarian cancer cell line, selected for its overexpression of both EGFR and HER2; and the breast cancer cell line (SKBR-3), characterized by HER2 overexpression.
(§2) Cells were passaged regularly at around 80% confluency using […] and maintained in 75 cm^2 flasks at 37 °C in a humidified atmosphere containing 5% CO2.
(§3) Approximately 10 × 10^3 cells were seeded per well of the 96-well plates using drug-free media and incubated for 24 h. […] After 48 h of drug exposure, the supernatant was aspirated, and the cells were washed with 100 μL of PBS. The MTT assay was performed by creating a stock solution of MTT at a concentration of 5 mg/mL in PBS. From this stock, a solution of MTT in the cell culture media was prepared to achieve a final concentration of 0.5 mg/mL. […] The MTT solution was thereafter removed, and the generated formazan crystals were dissolved by adding 100 μL of propanol/DMSO (50:50) per well. Absorbance was measured at 570 nm, and IC50 values for each compound were calculated by comparison against negative untreated controls.

HER2 = biological target: T1, HER2 (Homo sapiens, UniProt P04626); assay: In vitro enzyme inhibition assay, HER2 Kinase Assay Kit (BPS Bioscience); type: biochemical; details: three independent experiments; read-out: Protein Kinase Inhibition IC50, HER2
T1 construct: purchased BPS Bioscience 40721

A2780 cells = assay: In vitro cytotoxicity assay (MTT), A2780; type: cell-based; details: Homo sapiens, 48 h, read-out: percentage of cell viability, A2780
SKBR-3 cells = assay: In vitro cytotoxicity assay (MTT), SKBR-3; type: cell-based, human; details: for IC50: MTT, 48 h, mean ± SD, three experiments
Procedure: as §1, §2, §3

EGFR = biological target: T2, EGFR (Homo sapiens, UniProt P00533); assay: In vitro enzyme inhibition assay, EGFR Kinase Assay Kit (BPS Bioscience); type: biochemical; details: three independent experiments; read-out: Protein Kinase Inhibition IC50, EGFR
T2 construct: purchased BPS Bioscience 40321

[1] = system: A549, SKOV-3, A2780, SKBR-3 cells; assay: MTT assay, ranges stated over several cell lines; type: cell-based, human; details: IC50 MRC-5/IC50 cancer cell line; A549, SKOV-3, SKBR-3
Procedure: as §1, §2, §3

SKOV-3 cells = assay: In vitro cytotoxicity assay (MTT), SKOV-3; type: cell-based, human; details: for IC50: mean ± SD, three experiments
Procedure: as §1, §2, §3

[2] = In vitro cytotoxicity assay (MTT), normal cell line MRC-5; type: cell-based; details: MRC-5 normal embryonic lung cells, normal human embryonic lung cell line, mean ± SD
Procedure: as §2, §3

T2 sequence (P00533 25-1210): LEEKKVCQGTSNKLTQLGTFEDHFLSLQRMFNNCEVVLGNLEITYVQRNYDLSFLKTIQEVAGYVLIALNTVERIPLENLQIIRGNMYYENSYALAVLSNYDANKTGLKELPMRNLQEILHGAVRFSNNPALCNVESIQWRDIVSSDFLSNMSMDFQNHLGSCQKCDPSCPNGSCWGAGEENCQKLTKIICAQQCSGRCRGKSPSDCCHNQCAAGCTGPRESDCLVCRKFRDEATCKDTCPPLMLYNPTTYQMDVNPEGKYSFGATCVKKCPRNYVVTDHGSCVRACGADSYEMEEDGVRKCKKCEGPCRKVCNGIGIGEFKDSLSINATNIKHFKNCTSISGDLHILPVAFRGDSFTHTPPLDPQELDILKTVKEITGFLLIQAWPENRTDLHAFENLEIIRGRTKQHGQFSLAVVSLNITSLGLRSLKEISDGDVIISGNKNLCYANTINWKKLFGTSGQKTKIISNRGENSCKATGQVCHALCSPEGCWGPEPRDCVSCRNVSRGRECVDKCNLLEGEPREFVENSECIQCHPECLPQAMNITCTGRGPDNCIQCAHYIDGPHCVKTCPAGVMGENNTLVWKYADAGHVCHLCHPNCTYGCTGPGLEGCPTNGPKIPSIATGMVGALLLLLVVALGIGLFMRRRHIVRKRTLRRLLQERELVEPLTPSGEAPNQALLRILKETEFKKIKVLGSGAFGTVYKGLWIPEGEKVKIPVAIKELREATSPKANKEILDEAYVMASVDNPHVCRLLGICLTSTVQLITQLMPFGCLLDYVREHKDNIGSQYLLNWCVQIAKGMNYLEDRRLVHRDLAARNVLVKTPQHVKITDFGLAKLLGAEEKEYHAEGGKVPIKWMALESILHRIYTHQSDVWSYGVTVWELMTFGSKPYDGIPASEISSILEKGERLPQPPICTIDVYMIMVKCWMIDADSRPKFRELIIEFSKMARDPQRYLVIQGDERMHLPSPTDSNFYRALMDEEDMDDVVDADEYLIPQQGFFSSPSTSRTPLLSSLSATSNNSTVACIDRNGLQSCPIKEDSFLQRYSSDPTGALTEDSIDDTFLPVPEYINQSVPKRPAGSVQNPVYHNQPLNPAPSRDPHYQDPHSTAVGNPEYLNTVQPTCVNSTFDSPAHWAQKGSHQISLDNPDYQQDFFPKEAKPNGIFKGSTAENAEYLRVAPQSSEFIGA
T1 sequence (P04626 23-1255): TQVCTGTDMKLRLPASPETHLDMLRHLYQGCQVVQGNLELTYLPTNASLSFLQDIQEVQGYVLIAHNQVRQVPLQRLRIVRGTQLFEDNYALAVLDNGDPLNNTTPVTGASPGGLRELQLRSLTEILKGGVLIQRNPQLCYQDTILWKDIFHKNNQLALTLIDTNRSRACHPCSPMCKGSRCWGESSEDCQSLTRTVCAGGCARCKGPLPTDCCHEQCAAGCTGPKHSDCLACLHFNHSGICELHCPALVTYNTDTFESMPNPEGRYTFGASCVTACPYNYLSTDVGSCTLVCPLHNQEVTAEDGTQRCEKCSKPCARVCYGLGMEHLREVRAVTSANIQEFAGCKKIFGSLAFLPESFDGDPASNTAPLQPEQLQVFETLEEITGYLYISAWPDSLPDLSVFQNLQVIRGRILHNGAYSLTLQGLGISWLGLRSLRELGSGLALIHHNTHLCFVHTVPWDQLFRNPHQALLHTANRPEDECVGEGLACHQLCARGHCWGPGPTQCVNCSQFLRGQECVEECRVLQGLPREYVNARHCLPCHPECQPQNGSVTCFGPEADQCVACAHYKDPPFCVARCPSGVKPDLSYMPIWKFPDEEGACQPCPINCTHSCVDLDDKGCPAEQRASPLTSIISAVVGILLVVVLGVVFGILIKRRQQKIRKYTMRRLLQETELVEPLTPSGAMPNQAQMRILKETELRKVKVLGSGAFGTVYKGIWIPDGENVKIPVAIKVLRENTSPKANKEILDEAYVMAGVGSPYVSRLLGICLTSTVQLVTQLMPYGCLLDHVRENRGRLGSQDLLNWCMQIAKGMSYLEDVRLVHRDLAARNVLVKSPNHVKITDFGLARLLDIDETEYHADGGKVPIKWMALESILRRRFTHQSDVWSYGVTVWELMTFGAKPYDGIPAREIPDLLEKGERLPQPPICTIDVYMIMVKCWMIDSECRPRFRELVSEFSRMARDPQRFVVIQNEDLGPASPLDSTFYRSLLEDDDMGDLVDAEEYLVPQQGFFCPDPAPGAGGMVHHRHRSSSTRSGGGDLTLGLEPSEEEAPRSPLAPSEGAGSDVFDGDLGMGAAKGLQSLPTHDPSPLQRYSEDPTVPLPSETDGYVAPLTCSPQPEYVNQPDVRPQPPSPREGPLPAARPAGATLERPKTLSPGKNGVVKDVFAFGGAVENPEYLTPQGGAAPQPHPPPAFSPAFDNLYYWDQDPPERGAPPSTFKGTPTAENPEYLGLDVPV

Q: Which IC50 (A549 cells; Homo sapiens, A549, 48 h, read-out: Cytotoxicity (IC50), A549, MTT, 48 h) does the source give for O=C(N/N=C/c1cccc(C(F)(F)F)c1)c1ccc(Nc2ncnc3c2ncn3C2CCCC2)cc1 [16b, (E)-4-((9-cyclopentyl-9H-purin-6-yl)amino)-N′-(3-(trifluoromethyl)benzylidene) benzohydrazide] here?
A: 2.6 ± 0.35 µM

Q: What about the viability at 10 µM (A549 cells; Homo sapiens, A549, 48 h, read-out: percentage of cell viability, A549) of the same molecule?
A: 27%

Q: What about the “Selectivity index (SI), A549” value (A549 cells; IC50 against MRC-5/IC50 against A549) of the same molecule?
A: 14.07

Q: And the IC50 (A549 cells; read-out: Cytotoxicity (IC50), A549, MTT, 48 h)?
A: 2.6 ± 0.351 µM

Q: And the IC50 (HER2)?
A: 0.045 ± 0.01 µM

Q: And the viability at 10 µM (A2780 cells)?
A: 16%

Q: What about the IC50 (SKBR-3 cells; Homo sapiens, SK-BR-3, 48 h) of the same molecule?
A: 4.3 ± 0.94 µM

Q: And the “Selectivity index (SI), SKBR-3” value (SKBR-3 cells; IC50 against MRC-5/IC50 against SKBR-3)?
A: 8.51

Q: And the IC50 (SKBR-3 cells)?
A: 4.31 ± 0.948 µM

Q: And the IC50 (EGFR)?
A: 0.06 µM and 0.062 µM

Q: And the “Selectivity index (SI) range across cancer cell lines” value [1]?
A: 8.51–18.55

Q: What about the IC50 (SKOV-3 cells; Homo sapiens, SK-OV-3, 48 h, MTT, 48 h) of the same molecule?
A: 1.97 ± 0.07 µM

Q: And the viability at 10 µM (SKOV-3 cells; Homo sapiens, SK-OV-3, 10 µM, 48 h, MTT, read-out: percentage of cell viability, SKOV-3)?
A: 26%

Q: And the “Selectivity index (SI), SKOV-3” value (SKOV-3 cells; IC50 against MRC-5/IC50 against SKOV-3)?
A: 18.55

Q: What about the IC50 (SKOV-3 cells; MTT, 48 h) of the same molecule?
A: 1.98 ± 0.07 µM

Q: And the IC50 at 48 h [2]?
A: 36.65 ± 0.2 µM
